# Laboratory results reported in patent US5562894A, “Amino-acyl-type and catecholamine-type contrast agents for MRI” (Regents of the University of California, priority 1993, dated 1996).
# Assays:
# [1] = Comparative MRI of two preparations of Gd-DTPA-bis(phenylalanine ethyl ester) (Example 11); type: in vivo, mice
# Experimental: FIG. 8 is a photograph of T1-weighted magnetic resonance images obtained as in FIG. 6, except that a different preparation of Gd-DTPA-bis(phenylalanine ethyl ester) (sometimes abbreviated Gd-DTPA-(PheOEt)2) was used.
# Freshly prepared material, whose pH was carefully adjusted to neutrality, and which was stored in the cold, was determined to be about 90% Gd-DTPA-(PheOEt)2, the remainder being mostly Gd-DTPA-(PheOEt) (Phe).
# [2] = Hydrolysis of the esters in pH 7.4 HEPES buffer; type: physicochemical; details: pH 7.4, 25° C., each step
# Experimental: (§1) Aliquots were withdrawn at various time intervals and examined by HPLC [PRP-1 column; water-acetonitrile gradient; 25 mM ammonium formate, pH 7 mobile phase].
# [3] = T1-weighted spin-echo MRI of a rat, region-of-interest % enhancement (Examples 8 and 9); type: in vivo, Sprague-Dawley rat
# Experimental: FIG. 5 is a photograph of T1-weighted magnetic resonance images of a rat obtained before, and at 0, 5, 10, 15, 25, 45 and 60 minutes after the injection of Gd-DTPA-bis(phenylalanine) at a dose of 0.1 mmol/kg body weight. The images are 60 mm×60 mm×3 mm thick slices in the coronal plane. The region covered extends from just above the heart to somewhat below the liver. Imaging parameters are indicated along the left of the Figure and include the repetition time ([…]), echo time (6000 microseconds), number of signal averages (4), and the image matrix size (128×256).
# FIGS. 6A and 6B are photographs of T1-weighted magnetic resonance images obtained as described in FIG. 5A and 5B, except that Gd-DTPA-bis(phenylalanine ethyl ester) was used as the contrast agent.
# A 300-g male Sprague-Dawley rat was anesthetized with an intraperitoneal injection of a mixture of ketamine and diazepam, and a catheter was inserted into a lateral tail vein. The rat was then placed in a 5-cm inside diameter (i.d.) imaging coil in the bore of a 2-Tesla imager-spectrometer system (GE CSI; General Electric Co., Fremont, Calif.). A T1-weighted spin-echo image of the animal's abdomen in the coronal plane was then obtained (TR 300 ms; Te 6 ms; 128-256 image matrix; NEX=4; 3 mm slice thickness). Next, 0.6 g of the Gd-DTPA-bis(phenylalanine) solution described in Example 7 was injected via the catheter. A series of post-injection images were obtained. […] See also, FIGS. 5A and 5B.
# The imaging was carried out analogously to Example 8. […] See also, FIGS. 6A and 6B.
# [4] = type: in vitro ADME, rat
# Experimental: as §1
# [5] = in vivo; cited from earlier work
# [6] = T1-weighted spin-echo, 0.5 Tesla; cited from earlier work
# [7] = system: liver transport system or systems inhibitable by BSP; details: cited from earlier work
# [8] = rat, in vivo, 6 h; cited from earlier work
# [9] = In vivo MRI, % enhancement by region of interest (Example 19); set-up: species or system Sprague-Dawley rats
# Experimental: Magnetic resonance imaging was carried out using a CSI 2-Tesla imager (GE, Inc., Fremont, Calif.) equipped with a 5-cm diameter distributed-capacitance imaging coil. A T1-weighted (TR 300/TE 6; NEX 4) spin-echo sequence was used.
# Sprague-Dawley rats (250-350 g; n=4 for each contrast agent) were anesthetized with ketamine (90 mg/kg) and diazepam (10 mg/kg) and fitted with an intravenous catheter in a lateral tail vein. Anesthesia was maintained during imaging using pentobarbital delivered via an intraperitoneal catheter.
# The anesthetized animal was placed in the imaging coil and secured with tape. The coil containing the animal then was placed in the magnet bore, and the magnetic field was shimmed. Pre-contrast images were obtained. The contrast agent (100 μmol/kg) then was injected via the tail-vein catheter, and additional images were obtained at various intervals for up to 90 min post injection.
# Contrast agent enhancement was determined by measuring the mean signal intensity (SI) in operator-designated regions of interest (ROI). These were normalized to the pre-injection value for each ROI according to the following formula:
# % Enhancement=100×(SIpost -SIpre)/SIpre
# [10] = more pure preparation (about 90% bis ester)
# [11] = partially hydrolyzed material of FIG. 6 (ca. 45% bis ester)
compound,measurement,setting,value
"CCOC(=O)[C@H](Cc1ccccc1)NC(=O)CN(CCN(CCN(CC(=O)[O-])CC(=O)N[C@@H](Cc1ccccc1)C(=O)OCC)CC(=O)[O-])CC(=O)[O-].[Gd+3] [Gd-DTPA-bis(phenylalanine ethyl ester), Gd(III)-DTPA-bis(L-phenylalanine ethyl ester)]",heart enhancement,[1]; [10],74%
same,liver enhancement,[1]; [10],163%
same,factor by which degree of liver enhancement was greater,[1]; more pure preparation vs FIG. 6 material,about three
same,heart enhancement,[1]; [11],84%
same,liver enhancement,[1]; [11],53%
same,half-time of hydrolysis in aqueous buffer,[2],of the order of days
same,image enhancement (in words),"[3]; 2 Tesla, about 0.1 mmol/kg",different apparent enhancement in the liver and heart
same,image region-of-interest % enhancement,"[3]; heart, 0-3 min post-injection",86%
same,image region-of-interest % enhancement,"[3]; heart, 5-8 min post-injection",46%
same,image region-of-interest % enhancement,"[3]; heart, 15-18 min post-injection",66%
same,image region-of-interest % enhancement,"[3]; heart, 25-38 min post-injection",48%
same,image region-of-interest % enhancement,"[3]; heart, 45-48 min post-injection",49%
same,image region-of-interest % enhancement,"[3]; heart, 60-63 min post-injection",25%
same,image region-of-interest % enhancement,"[3]; liver, 0-3 min post-injection",70%
same,image region-of-interest % enhancement,"[3]; liver, 5-8 min post-injection",109%
same,image region-of-interest % enhancement,"[3]; liver, 15-18 min post-injection",113%
same,image region-of-interest % enhancement,"[3]; liver, 25-38 min post-injection",99%
same,image region-of-interest % enhancement,"[3]; liver, 45-48 min post-injection",71%
same,image region-of-interest % enhancement,"[3]; liver, 60-63 min post-injection",44%
same,image region-of-interest % enhancement,"[3]; muscle (Table 3: skeletal muscle), 0-3 min post-injection",50%
same,image region-of-interest % enhancement,"[3]; muscle (Table 3: skeletal muscle), 5-8 min post-injection",30%
same,image region-of-interest % enhancement,"[3]; muscle (Table 3: skeletal muscle), 15-18 min post-injection",31%
same,image region-of-interest % enhancement,"[3]; muscle (Table 3: skeletal muscle), 25-38 min post-injection",26%
same,image region-of-interest % enhancement,"[3]; muscle (Table 3: skeletal muscle), 45-48 min post-injection",16%
same,image region-of-interest % enhancement,"[3]; muscle (Table 3: skeletal muscle), 60-63 min post-injection",16%
same,ester hydrolysis in rat plasma (in words),[4],very rapidly hydrolyzed in rat plasma
"CNC[C@H](O)[C@@H](O)[C@H](O)[C@H](O)CO.CNC[C@H](O)[C@@H](O)[C@H](O)[C@H](O)CO.O=C([O-])CN(CCN(CC(=O)[O-])CC(=O)O)CCN(CC(=O)[O-])CC(=O)O.[Gd+3] [Gd-DTPA, gadolinium (III) complex of diethylenetriaminepentaacetic acid]",distribution (in words),[5],distributes in blood plasma and extracellular fluid
same,signal enhancement in liver,[6],16%
O=C([O-])C(NCCNC(C(=O)[O-])c1ccccc1[O-])c1ccccc1[O-].[Fe+3] (stereo not shown) [Fe-EHPG],liver transport (in words),[7],transported in the liver by a system or systems inhibitable by BSP
CC(=O)N([O-])CCCCCNC(=O)CCC(=O)N([O-])CCCCCNC(=O)CCC(=O)N([O-])CCCCCNC(=O)CC(CC(=O)[O-])c1ccccc1.[Fe+3].[H+] (stereo not shown) [Fe-PGDF],liver transport (in words),[7],transported in the liver by a system or systems inhibitable by BSP
O=C([O-])CN(CCN(CC(=O)[O-])CC(=O)[O-])CCN(CC(=O)[O-])C(COCc1ccccc1)C(=O)[O-].[Gd+3] (stereo not shown) [Gd-BOPTA],biliary excretion,[8],38.6 % of injected dose
same,signal enhancement in liver,[6],48%
"COc1ccc(CCNC(=O)CN(CCN(CCN(CC(=O)[O-])CC(=O)NCCc2ccc(OC)c(OC)c2)CC(=O)[O-])CC(=O)[O-])cc1OC.[Gd+3] [Gd-DTPA-(3,4-DMPE)2]",lung enhancement,"[9]; 100 μmol/kg i.v., n=4",141%±4%
same,enhancement of organs (in words),[9]; MRI of rats,"useful enhancement of heart, lungs, kidney and liver"
"CCOC(=O)[C@@H](Cc1ccccc1)NC(=O)CN(CCN(CCN(CC(=O)[O-])CC(=O)N[C@H](Cc1ccccc1)C(=O)OCC)CC(=O)[O-])CC(=O)[O-].[Gd+3] [Gd-DTPA-(D-PheOEt)2, Gd(III)-DTPA-bis(D-phenylalanine ethyl ester)]",half-time of hydrolysis in aqueous buffer,[2],of the order of days
same,ester hydrolysis in rat plasma (in words),[4],resistant to even the first step of ester hydrolysis
same,t1/2 of ester hydrolysis in rat plasma,[4],None Detected
